Counter-ions that a name gives are not always drawn. Like-named read-outs stand apart in the source and are kept apart here.
Legend:
[1] = system: mechanical allodynia after chronic constriction injury (CCI) to the sciatic nerve; experiment: Mechanical allodynia by response to von Frey fibers, rat chronic constriction injury (CCI) model; type: in vivo, male Sprague-Dawley rats; conditions: 2 hr post dosing
Description: Chronic Constriction Injury: Heat and cold allodynia responses as well as mechanical allodynia sensations can be evaluated as described below in rats having a chronic constriction injury (CCI). A unilateral mononeuropathy is produced in rats using the chronic constriction injury model described in Bennett et al., Pain (1988) 33:87-107. CCI is produced in anesthetized rats as follows. The lateral aspect of each rat's hind limb is shaved and scrubbed with Nolvasan. Using aseptic techniques, an incision is made on the lateral aspect of the hind limb at the mid-thigh level. The biceps femoris is bluntly dissected to expose the sciatic nerve. On the right hind limb of each rat, four loosely tied ligatures (for example, Chromic gut 4.0; Ethicon, Johnson and Johnson, Somerville, N.J.) are made around the sciatic nerve approximately 1-2 mm apart. On the left side of each rat, an identical dissection is performed except that the sciatic nerve is not ligated (sham). The muscle is closed with a continuous suture pattern with, e.g., 4-0 Vicryl (Johnson and Johnson, Somerville, N.J.) and the overlying skin is closed with wound clips. The rats are ear-tagged for identification purposes and returned to animal housing.
To induce allodynia, male Sprague-Dawley rats underwent chronic constriction injury (CCI) to the sciatic nerve as described by Bennett and Xie, Pain 1988; 33(1):87-107. The plantar surface of the hind paws was stimulated with von Frey filaments (Stoelting) to induce a withdrawal response by blinded personnel. The bending force of fiber required to induce a 50% withdrawal response was calculated following CCI surgery (pre-dosing baseline). N=5-6 allodynic rats received a single intraperitoneal administration of test compound or vehicle. Two hours post-dosing, 50% paw withdrawal threshold was determined again by blinded testers using von Frey filaments. The change in 50% withdrawal threshold relative to pre-dosing baseline is reported in Table 2 for various substituted pyrazolo[1,5-a]pyridine compounds of the invention.

[2] = target: phosphodiesterase (PDE) enzyme derived from bovine brain; experiment: Inhibition of PDE (PDELight kit, cAMP substrate); type: biochemical; conditions: PDE from brain extract, cAMP as substrate
Method: In a 96-well plate, phosphodiesterase (PDE) enzyme (0.5-1 mU/well) derived from bovine brain (Sigma) was combined with 5 uM cAMP substrate (Sigma). Test compounds (0-200 uM) or vehicle (0.5% DMSO) were added to the enzyme/substrate and incubated for 1 hour. Using a PDELight® kit (Cambrex), the amount of AMP produced in the reaction from the hydrolysis of cAMP was quantified using PDELight AMP Detection Reagent which converts the AMP directly to ATP. The assay uses luciferase, which catalyses the formation of light from the newly formed ATP and luciferin. The luminescence was read on a Victor Light 1420 luminometer. IC50 calculations were plotted using a nonlinear regression curve fit.

[3] = system: TNF-α production in LPS-stimulated human peripheral blood mononuclear cells; experiment: Inhibition of LPS-stimulated TNF-α release from PBMCs; type: cell-based; conditions: PBMC
Method: IC50 values were determined for representative compounds of the invention based upon their ability to inhibit LPS-induced cytokine production in human peripheral blood mononuclear cells. Human PBMCs (peripheral blood mononuclear cells) were isolated over a Ficoll gradient from buffy coats obtained from the local Red Cross. 10^6 PBMC cells/well were seeded in 24-well tissue culture plates in RPMI 1640 medium supplemented with 10% human serum, hepes buffer and sodium pyruvate. The cells were treated with 0.1% DMSO (vehicle) or test compounds (1, 10, and 100 uM) 30 minutes prior to activation with LPS (lipopolysaccharide) (E. Coli) at 10 ng/mL. 6-10 hours post LPS stimulation the culture supernatants were collected and levels of cytokines TNF-α and IL-1β were quantified by ELISA (R&D Systems) and/or Luminex (Linco Diagnostics). IC50 calculations were plotted using a nonlinear regression curve fit for exemplary substituted pyrazolo[1,5-a]pyridine compounds of the invention; results are provided in Table 2.

With `CC(C)c1nn2ccccc2c1C(=O)c1ncccc1Cl` [Compound 1038, (3-chloropyridin-2-yl)(2-isopropylpyrazolo[1,5-a]pyridin-3-yl)methanone] the “Mechanical Allodynia ΔWT (change from pre-dosing 50% withdrawal threshold)” value ([1]; 10 mg/kg IP) was 0.32 grams and the IC50 [2] was 26.4 µM.

In the case of `CC(C)C(=NOC(N)=O)c1c(-c2ccc(Cl)cc2)nn2ccccc12` [Compound 1026, 1-(2-(4-chlorophenyl)pyrazolo[1,5-a]pyridin-3-yl)-2-methylpropan-1-one O-carbamoyl oxime], the “Mechanical Allodynia ΔWT (change from pre-dosing 50% withdrawal threshold)” value ([1]; 10 mg/kg IP) is reported as 1.14 grams and the IC50 [2] is reported as 27.7 µM.

For `CC(C)c1nn2ccccc2c1C(NC1CC1)C(C)C` (stereo not drawn) [Compound 1044, N-(1-(2-isopropylpyrazolo[1,5-a]pyridin-3-yl)-2-methylpropyl)cyclopropanamine], the “Mechanical Allodynia ΔWT (change from pre-dosing 50% withdrawal threshold)” value ([1]; 10 mg/kg IP) was 0.08 grams and the IC50 [2] was greater than 200 µM.

In the case of `CC(C)C(=NOC(N)=O)c1c(-c2ccccc2)nn2ccccc12` [Compound 1017, 2-methyl-1-(2-phenylpyrazolo[1,5-a]pyridin-3-yl)propan-1-one O-carbamoyl oxime], the “Mechanical Allodynia ΔWT (change from pre-dosing 50% withdrawal threshold)” value ([1]; 10 mg/kg IP) is reported as 0.91 grams and the IC50 [2] is reported as greater than 200 µM.

For `CC(C)c1nn2ccccc2c1C(NCC1CC1)C(C)C` (stereo not drawn) [Compound 1048, N-(cyclopropylmethyl)-1-(2-isopropylpyrazolo[1,5-a]pyridin-3-yl)-2-methylpropan-1-amine hydrochloride], the “Mechanical Allodynia ΔWT (change from pre-dosing 50% withdrawal threshold)” value ([1]; 10 mg/kg IP) was 0 grams and the IC50 [2] was greater than 200 µM.

In the case of `CC(C)c1nn2ccccc2c1C(=O)C(C)N1CCCCC1` (stereo not drawn) [Compound 1036, 1-(2-isopropylpyrazolo[1,5-a]pyridin-3-yl)-2-(piperidin-1-yl)propan-1-one hydrochloride], the “Mechanical Allodynia ΔWT (change from pre-dosing 50% withdrawal threshold)” value ([1]; 10 mg/kg IP) is reported as 0 grams and the IC50 [2] is reported as greater than 200 µM.

In the case of `COc1ccc2c(C(=O)C(C)C)c(C(C)C)nn2c1` [compound 1005, 1-(2-isopropyl-6-methoxypyrazolo[1,5-a]pyridin-3-yl)-2-methylpropan-1-one], the “Mechanical Allodynia ΔWT (change from pre-dosing 50% withdrawal threshold)” value ([1]; 10 mg/kg IP) is reported as 0.17 grams, the IC50 [2] is reported as 59.5 µM and the IC50 ([3]; LPS-stimulated cytokine release from PBMCs, read-out: TNF-α (IC50)) is reported as 76 µM.

`CC(NC1CC1)C(=O)c1c(C(C)C)nn2ccccc12` (stereo not drawn) [Compound 1045, 2-(cyclopropylamino)-1-(2-isopropylpyrazolo[1,5-a]pyridin-3-yl)propan-1-one hydrochloride] was tested, and the “Mechanical Allodynia ΔWT (change from pre-dosing 50% withdrawal threshold)” value ([1]; 10 mg/kg IP) was 0 grams and the IC50 [2] was 61.1 µM.

For `CC(C)C(=O)c1c(-c2ccc(Cl)cc2)nn2ccccc12` [Compound 1024, 1-(2-(4-chlorophenyl)pyrazolo[1,5-a]pyridin-3-yl)-2-methylpropan-1-one], the “Mechanical Allodynia ΔWT (change from pre-dosing 50% withdrawal threshold)” value ([1]; 10 mg/kg IP) was 0.43 grams, the IC50 [2] was 18.2 µM and the IC50 ([3]; less than or equal to about 50 μM, PBMCs, read-out: IC50, LPS-induced cytokine production (cytokine not specified)) was no more than 50 µM.

In the case of `CNC(C)C(=O)c1c(C(C)C)nn2ccccc12` (stereo not drawn) [Compound 1042, 1-(2-isopropylpyrazolo[1,5-a]pyridin-3-yl)-2-(methylamino)propan-1-one hydrochloride], the “Mechanical Allodynia ΔWT (change from pre-dosing 50% withdrawal threshold)” value ([1]; 10 mg/kg IP) is reported as 10 mg/kg: 0.37 grams, the “Mechanical Allodynia ΔWT (change from pre-dosing 50% withdrawal threshold)” value ([1]; 20 mg/kg IP) is reported as 20 mg/kg: 0.22 grams and the IC50 [2] is reported as 31.9 µM.

For `CC(C)c1nn2ccccc2c1C(=O)C(C)N1CCOCC1` (stereo not drawn) [Compound 1034, 1-(2-isopropylpyrazolo[1,5-a]pyridin-3-yl)-2-morpholinopropan-1-one hydrochloride], the “Mechanical Allodynia ΔWT (change from pre-dosing 50% withdrawal threshold)” value ([1]; 10 mg/kg IP) was 10 mg/kg: 1.71 grams, the “Mechanical Allodynia ΔWT (change from pre-dosing 50% withdrawal threshold)” value ([1]; 20 mg/kg IP) was 20 mg/kg: 0.54 grams and the IC50 [2] was 43.3 µM.

For `CC(C)c1nn2ccccc2c1C(=O)C(N)c1ccccc1` (stereo not drawn) [Compound 1039, 2-amino-1-(2-isopropylpyrazolo[1,5-a]pyridin-3-yl)-2-phenylethanone], the “Mechanical Allodynia ΔWT (change from pre-dosing 50% withdrawal threshold)” value ([1]; 10 mg/kg IP) was 0.05 grams and the IC50 [2] was 8.2 µM.

For `CC(C)c1nn2ccccc2c1C(=O)C(C)N1CCN(C)CC1` (stereo not drawn) [Compound 1035, 1-(2-isopropylpyrazolo[1,5-a]pyridin-3-yl)-2-(4-methylpiperazin-1-yl)propan-1-one hydrochloride], the “Mechanical Allodynia ΔWT (change from pre-dosing 50% withdrawal threshold)” value ([1]; 10 mg/kg IP) was 0 grams and the IC50 [2] was 198 µM.

`CC(C)c1nn2ccccc2c1C(=O)C(C)N1CCNCC1` (stereo not drawn) [Compound 1037, 1-(2-isopropylpyrazolo[1,5-a]pyridin-3-yl)-2-(piperazin-1-yl)propan-1-one hydrochloride] was tested, and the “Mechanical Allodynia ΔWT (change from pre-dosing 50% withdrawal threshold)” value ([1]; 10 mg/kg IP) was 0 grams and the IC50 [2] was greater than 200 µM.

With `CC(C)C(=NO)c1c(-c2ccc(Cl)cc2)nn2ccccc12` [Compound 1025, 1-(2-(4-chlorophenyl)pyrazolo[1,5-a]pyridin-3-yl)-2-methylpropan-1-one oxime] the “Mechanical Allodynia ΔWT (change from pre-dosing 50% withdrawal threshold)” value ([1]; 10 mg/kg IP) was 0.81 grams and the IC50 [2] was 23 µM.

With `CC(C)c1nn2ccccc2c1C(=O)C(C)N(C)Cc1ccccc1` (stereo not drawn) [Compound 1041, 2-(benzyl(methyl)amino)-1-(2-isopropylpyrazolo[1,5-a]pyridin-3-yl)propan-1-one] the “Mechanical Allodynia ΔWT (change from pre-dosing 50% withdrawal threshold)” value ([1]; 10 mg/kg IP) was 0.22 grams and the IC50 [2] was 21.5 µM.

For `COc1ccc(-c2nn3ccccc3c2C(=O)C(C)C)cc1` [Compound 1021, 1-(2-(4-methoxyphenyl)pyrazolo[1,5-a]pyridin-3-yl)-2-methylpropan-1-one], the “Mechanical Allodynia ΔWT (change from pre-dosing 50% withdrawal threshold)” value ([1]; 10 mg/kg IP) was 0.45 grams and the IC50 [2] was greater than 200 µM.

In the case of `CCC(=O)c1c(CC)nn2ccccc12` [Compound 1040, 1-(2-ethylpyrazolo[1,5-a]pyridin-3-yl)propan-1-one], the “Mechanical Allodynia ΔWT (change from pre-dosing 50% withdrawal threshold)” value ([1]; 10 mg/kg IP) is reported as 0.12 grams and the IC50 [2] is reported as 27.1 µM.

In the case of `CC(C)=Cc1c(C(C)C)nn2ccccc12` [compound 1049, 2-isopropyl-3-(2-methylprop-1-enyl)pyrazolo[1,5-a]pyridine], the “Mechanical Allodynia ΔWT (change from pre-dosing 50% withdrawal threshold)” value ([1]; 10 mg/kg IP) is reported as 0 grams and the IC50 [2] is reported as 92.5 µM.

`CCCCC(N)C(=O)c1c(C(C)C)nn2ccccc12` (stereo not drawn) [Compound 1077, 2-amino-1-(2-isopropylpyrazolo[1,5-a]pyridin-3-yl)hexan-1-one] was tested, and the “Mechanical Allodynia ΔWT (change from pre-dosing 50% withdrawal threshold)” value ([1]; 10 mg/kg IP) was 0.41 grams.

With `COc1ccc(-c2nn3ccccc3c2C(=NO)C(C)C)cc1` [Compound 1022, 1-(2-(4-methoxyphenyl)pyrazolo[1,5-a]pyridin-3-yl)-2-methylpropan-1-one oxime] the “Mechanical Allodynia ΔWT (change from pre-dosing 50% withdrawal threshold)” value ([1]; 10 mg/kg IP) was 0 grams and the IC50 [2] was 23.9 µM.

`CC(C)c1nn2ccccc2c1-c1cn[nH]c1` [Compound 1104, 2-isopropyl-3-(1H-pyrazol-4-yl)-pyrazolo[1,5-a]pyridine] was tested, and the “Mechanical Allodynia ΔWT (change from pre-dosing 50% withdrawal threshold)” value ([1]; 10 mg/kg IP) was 0.86 grams.

For `COc1ccc(-c2nn3ccccc3c2C(=NOC(N)=O)C(C)C)cc1` [Compound 1023, 1-(2-(4-methoxyphenyl)pyrazolo[1,5-a]pyridin-3-yl)-2-methylpropan-1-one O-carbamoyl oxime], the IC50 [2] was 156 µM.

With `CC(C)C(=NOC(N)=O)c1c(-c2ccc(F)cc2)nn2ccccc12` [Compound 1020, 1-(2-(4-fluorophenyl)pyrazolo[1,5-a]pyridin-3-yl)-2-methylpropan-1-one O-carbamoyl oxime] the IC50 [2] was greater than 200 µM.

In the case of `CC(C)C(=O)c1c(C(C)(C)O)nn2ccccc12` [compound 1003, 1-(2-(2-hydroxypropan-2-yl)pyrazolo[1,5-a]pyridin-3-yl)-2-methylpropan-1-one], the “Mechanical Allodynia ΔWT (change from pre-dosing 50% withdrawal threshold)” value ([1]; 10 mg/kg IP) is reported as 0 grams and the IC50 [2] is reported as greater than 100 µM.

With `CC(C)c1nn2ccccc2c1-c1cnn(C)c1` [Compound 1112, 2-Isopropyl-3-(1-methyl-1H-pyrazol-4-yl)-pyrazolo[1,5-a]pyridine] the “Mechanical Allodynia ΔWT (change from pre-dosing 50% withdrawal threshold)” value ([1]; 10 mg/kg IP) was 0 grams.
